How the values were obtained:
[1] = system: HBV viral load in AD38 cells; assay: Viral load production in AD38 cells, quantitative PCR of the core sequence in supernatant; format: cell-based; conditions: 10 μM compound, 6 days at 37° C., supernatant qPCR, relative to DMSO control; for activity at 10 µM: Hepatitis B virus, 144 h, read-out: AD38 Viral Load (%) (VL with cmpd/VL in DMSO control) at 10 μM
AD38 cells = assay: Viability of AD38 cells (Promega CellTiter-Glo); format: cell-based; conditions: 10 μM compound, 6 days, CellTiter-Glo luminescence normalized to DMSO control (100%)
Summary of the method: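 AD38 cells were seeded at 50,000/well on collagen-coated plates and treated with compound added as a 10× solution in 10% DMSO for 6 days at 37° C. Viability was measured by CellTiter-Glo luminescence in tetracycline-free medium with 2% FBS and 1% DMSO, and expressed as percent of DMSO control.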

Compound | activity at 10 µM [1] | AD38 Viability Normalized Result (cmpd/DMSO %) at 10 μM (AD38 cells) | AD38 Viral Load (%) (VL with cmpd/VL in DMSO control) at 10 μM [1]
COc1ccc(-c2ncc(CNC(=O)c3ccc4c(c3)NC(=O)c3ccccc3O4)s2)cn1 [compound 1705, N-((2-(6-methoxypyridin-3-yl)thiazol-5-yl)methyl)-11-oxo-10, 11-dihydrodibenzo [b, f] [1, 4] oxazepine-8-carboxamide] | 3.7% | 93% | 
Cc1cc(-c2ncc(CNC(=O)c3ccc4c(c3)NC(=O)c3ccccc3O4)s2)cc(C)c1O [compound 1738, N-((2-(4-hydroxy-3,5-dimethylphenyl)thiazol-5-yl)methyl)-11-oxo-10, 11-dihydrodibenzo [b, f] [1, 4] oxazepine-8-carboxamide] | 2.9% | 93% | 
O=C(NCc1cnc(-c2ccc3[nH]ncc3c2)s1)c1ccc2c(c1)NC(=O)c1ccccc1O2 [compound 1737] | 7.2% | 112% | 
O=C(NCc1cnc(-c2ccc(O)c(Cl)c2)s1)c1ccc2c(c1)NC(=O)c1ccccc1O2 [compound 1702] | 5.3% | 102% | 
O=C(NCc1cnc(C(F)(F)F)s1)c1ccc2c(c1)NC(=O)c1ccccc1S2 [compound 1421] | 1.3% | 104% | 
Cc1c(C(=O)NCc2cnc(-c3ccc(C#N)cc3F)s2)ccc2c1NC(=O)c1ccccc1S2(=O)=O [compound 1971] | 7% | 87% | 
CCc1ncc(CNC(=O)c2ccc3c(c2)NC(=O)c2ccccc2S3(=O)=O)s1 [compound 1551] | 0.4% | 99% | 
N#Cc1ccc(-c2ncc(CNC(=O)c3ccc4c(c3)NC(=O)c3ccccc3S4(=O)=O)s2)cc1Cl [compound 1817] | 0.3% | 97% | 
O=C(NCc1cnc(-c2ccc(OC3CCNCC3)cc2)s1)c1ccc2c(c1)NC(=O)c1ccccc1S2(=O)=O [compound 11026, 11-oxo-N-((2-(4-(piperidin-4-yloxy)phenyl)thiazol-5-yl)methyl)-10, 11-dihydrodibenzo [b, f] [1, 4] thiazepine-8-carboxamide 5,5-dioxide] | 5.5% | 100% | 
O=C(NCc1cnc(-c2ccc3[nH]cnc3c2)s1)c1ccc2c(c1)NC(=O)c1ccccc1S2(=O)=O [compound 1637] | 2.3% | 101% | 
O=C(NCc1cnc(-c2ccccc2CO)s1)c1ccc2c(c1)NC(=O)c1ccccc1S2(=O)=O [compound 1838] | 1.4% | 113% | 
CN(C)CCCCOc1ccc(-c2ncc(CNC(=O)c3ccc4c(c3)NC(=O)c3ccccc3S4(=O)=O)s2)cc1 [compound 11001] | 1.7% | 77% | 
Cl.O=C(NCc1cnc(-c2ccc(C(=O)N3CCNCC3)cc2)s1)c1ccc2c(c1)NC(=O)c1ccccc1S2(=O)=O [compound 11016, 11-oxo-N-((2-(4-(piperazine-1-carbonyl)phenyl)thiazol-5-yl)methyl)-10, 11-dihydrodibenzo [b, f] [1, 4] thiazepine-8-carboxamide 5,5-dioxide hydrochloride] | 38.8% | 106% | 
O=C(Nc1ncc(Cl)s1)c1ccc2c(c1)NC(=O)c1ccccc1S2(=O)=O [compound 1473] | 26.5% | 79% | 
CN(CCCOc1ccc(-c2ncc(CNC(=O)c3ccc4c(c3)NC(=O)c3ccccc3S4(=O)=O)s2)cc1)C1CC1 [compound 11092] | 0.5% | 101% | 
O=C(NCc1cnc(-c2ccc(O)cc2)s1)c1ccc2c(c1)NC(=O)c1cc(F)ccc1S2 [compound 1746] | 5.6% | 92% | 
Cc1ncc(CNC(=O)c2ccc3c(c2C)NC(=O)c2ccccc2S3)s1 [compound 1535] | 0.8% | 84% | 
Cc1c(C(=O)NCc2cnc(-c3ccc(O)cc3)s2)ccc2c1NC(=O)c1ccccc1S2 [compound 1755] | 0.4% | 93% | 
Cc1c(C(=O)NCc2cnc(-c3ccc(OCCCN(C)C)cc3)s2)ccc2c1NC(=O)c1ccccc1S2 [C20-01] | 1.5% | 98% | 
Cc1ncc(CNC(=O)c2ccc3c(c2)NC(=O)c2cc(Cl)ccc2S3)s1 [compound 1541] | 3.7% | 98% | 
O=C(NCc1cnc(-c2ccc(O)cc2)s1)c1ccc2c(c1)NC(=O)c1ccccc1O2 [compound 1618] | 1.9% | 100% | 
CC(C)(C)OC(=O)N1CCN(c2ccc(-c3ncc(CNC(=O)c4ccc5c(c4)NC(=O)c4ccccc4S5(=O)=O)s3)cn2)CC1 [11019-A, tert-butyl 4-(5-(5-((5,5-dioxido-11-oxo-10, 11-dihydrodibenzo [b, f] [1, 4]thiazepine-8-carboxamido)methyl)thiazol-2-yl)pyridin-2-yl) piperazine-1-carboxylate] |  | 95% | 1.0%
COc1c(C)cc(-c2ncc(CNC(=O)c3ccc4c(c3)NC(=O)c3ccccc3O4)s2)cc1C [1738-A] | 1.8% | 104% | 
Cl.NCCCSc1ccc(-c2ncc(CNC(=O)c3ccc4c(c3)NC(=O)c3ccccc3S4(=O)=O)s2)cc1 [compound 11007, N-((2-(4-((3-aminopropyl)thio)phenyl)thiazol-5-yl)methyl)-11-oxo-10, 11-dihydrodibenzo [b, f] [1, 4] thiazepine-8-carboxamide 5,5-dioxide hydrochloride] | 2% | 101% | 
O=C(NCc1cnc(Cc2ccc(O)cc2)s1)c1ccc2c(c1)NC(=O)c1ccccc1S2(=O)=O [compound 1823, N-((2-(4-hydroxybenzyl)thiazol-5-yl)methyl)-11-oxo-10, 11-dihydrodibenzo [b, f] [1, 4] thiazepine-8-carboxamide 5,5-dioxide] | 5.2% | 96% | 
C=CCN1c2ccc(C(=O)NCc3cnc(C(F)(F)F)s3)cc2NC(=O)c2ccccc21 [compound 1920] | 48.8% | 85% | 
Cc1ncc(CNC(=O)c2ccc3c(c2)NC(=O)c2ccc(Cl)cc2S3)s1 [compound 1544] | 2.6% | 88% | 
O=C(NCc1cnc(-c2ccc3[nH]cnc3c2)s1)c1ccc2c(c1)NC(=O)c1ccccc1O2 [compound 1695] | 22.9% | 102% | 
O=C1Cc2cccc(-c3ncc(CNC(=O)c4ccc5c(c4)NC(=O)c4ccccc4S5(=O)=O)s3)c2N1 [compound 1930] | 23.8% | 91% | 
Cc1cc2c(cc1C(=O)NCc1cncs1)NC(=O)c1ccccc1S2 [compound 1496] | 9.6% | 57% | 

Reference: patent US11814376B2, “Hepatitis b core protein modulators” (Assembly Biosciences, Inc., priority 2015, dated 2023)
